Earlier results, collected in patent US20180066081A1, “SUBSTITUTED CYCLIC ETHER POLYMERS AND CONJUGATES AND USES THEREOF” (UNIVERSITY OF IOWA RESEARCH FOUNDATION, priority 2015, published 2018).

Details: chlorhexidine rinses (e.g., PERIDEX, chlorhexidine gluconate 0.12%); from package insert

In the case of `[H]/N=C(\N/C(=N/[H])NCCCCCCNC(=N)NC(=N)Nc1ccc(Cl)cc1)Nc1ccc(Cl)cc1` [chlorhexidine], the “active compound retained in the oral cavity following application” value is listed as “about 30%”.
